Reference: patent publication US20250057993A1, “LABELED INHIBITORS OF PROSTATE SPECIFIC MEMBRANE ANTIGEN (PSMA), THEIR USE AS IMAGING AGENTS AND PHARMACEUTICAL AGENTS FOR THE TREATMENT OF PSMA-EXPRESSING CANCERS” (Universität Heidelberg, priority 2018, published 2025)
Like-named read-outs stand apart in the source and are kept apart here.

Tests used:
PSMA [1] = target: T1, PSMA (Homo sapiens, UniProt Q04609); parameters: PET/CT imaging in first patients was performed; from tissue; host or cells: tissues and tumour lesions of prostate cancer patients (in vivo PET/CT); details: values from Afshar-Oromieh et al., 2015, cited from earlier work
[2] = Serum stability of 68Ga, 177Lu and 64Cu labeled compounds (iTLC, HPLC, pellet activity); type: in vitro ADME; details: 177Lu-labeled, human serum, 24 h
Description: After radiolabeling of the compounds the serum stability was determined by iTLC and HPLC analysis. 50 μL (20 MBq) of the labeled ligands was added to 200 μL of human serum (H4522; Sigma-Aldrich, Germany) and incubated at 37° C. for different time-points (0, 2 h, 24 h, 48 h and 72 h). 0.5×5 cm strips of iTLC-SG-glass microfiber chromatography paper (Folsom, California USA) were used. 0.5 μL of the radiolabeled compound in serum was applied to each strip at 1 cm from the bottom (origin) and the solvent (sodium citrate buffer (0.5 M, pH=5.0) in case of ^177Lu ligands, (1% Na-EDTA, pH=4) in case of Cu labeled ligands) front was allowed to rise to 5 cm from the bottom. Finally, each strip was cut in 8 pieces; each piece was measured in a gamma-counter. For HPLC analysis an equal volume of ACN was added to the samples to precipitate the serum proteins. Subsequently, the samples were centrifuged for 10 min at 13,000 rpm and the pellet and supernatant were separated and the relative activity was measured. The results are expressed as percent. In addition, an aliquot of the supernatant was analyzed by radio-HPLC (0-100% ACN in 5 min, Monolith column), with a flow rate of 2 mL/min.

PSMA [3] = target: T1, PSMA; assay: Competitive binding assay (Ki) on PSMA-positive C4-2 cells; parameters: host or cells: C4-2 cells; details: non-labeled ligands vs 0.75 nM 68Ga-PSMA-HBED-CC dimer
Description: In vitro and in vivo experiments were performed using the PSMA-positive C4-2 cell line, a subline of the LNCaP (lymph node carcinoma of the prostate) cell line (CRL-3314; American Type Culture Collection). C4-2 cells were cultivated in RPMI 1640 (PAN Biotech) medium supplemented with 10% fetal calf serum and stable glutamine (PAN Biotech). Cells were grown at 37° C. and incubated with humidified air equilibrated with 5% CO2.
A MultiScreenHTS-DV filter plate was incubated at room temperature with 100 μl PBS containing 1% BSA per well for 30 min. After removal of the PBS/BSA solution 1×10^5 C4-2 cells were added Opti-MEM to each well. […] All non-labeled compounds were dissolved in Opti-MEM at a volume of 300 μl with the following concentrations: 0, 0.5, 1, 2.5, 5, 10, 25, 50, 100, 500, 1000 and 5000 nM. Subsequently, 3 μl of the radiolabeled compound was added. 50 μl of this mixture was taken to obtain a 0.75 nM concentration of the radiolabeled ligand. After 45 min incubation at 37° C., the cells were washed twice with PBS on a multiscreen vacuum manifold (Millipore, Billerica, MA) and the cell-bound radioactivity was measured with a gamma counter (Packard Cobra II, GMI, Minnesota, USA). The inhibitory potency was determined using ^68Ga-labeled PSMA-HBED-CC dimer (i.e. PSMA-11) as reference. The Ki was calculated using a nonlinear regression algorithm (Graph Pad Prism 5.01 software). The experiments were performed in quadruplicate.

C4-2 tumor = assay: Planar scintigraphic imaging of 203Pb-labeled compounds; type: in vivo, BALB/c nu/nu mice; details: tail vein injection
Description: (§1) The in vivo experiments were carried out in accordance with the laws of the German Federal Republic. For PET imaging and biodistribution studies, male nude mice (Balb/c nu/nu mice) (19-23 g) were obtained from Charles River at 4-5 weeks of age and kept under specific-pathogen-free condition for 1 week prior to the study. The mice were housed with a 12-hour/12-hour light/dark cycle and had free access to water and food. The mice were anesthetized with 2% sevoflurane and inoculated subcutaneously on the right trunk with 5×10^7 C4-2 cells in 50% Matrigel in Opti-MEM I (1×) medium. Organ distribution studies were performed, when the size of the tumor was approximately 1 cm^3.
For small-animal imaging the mice were anesthetized with 2% sevoflurane. 0.1 nmol (1.0 MBq) of the ^203Pb-ligand was injected into the tail vein. Serial planar scans were performed using a Gamma Imager SCT (Biospace Lab, Paris, France) with a parallel collimator (35 mm/1.8 mm/0.2 mm) after 10 min, 1 h, 4 h, 24 h. and 72 h. Based on the imaging results, compound CA012 was chosen for biodistribution studies. Experiments were performed in triplicate.

[4] = In vivo metabolite analysis of 177Lu-labeled ligands (radio-HPLC of tissue extracts); parameters: species or system BALB/c nude mouse; details: 1 h p.i., 10 MBq, 0.2 nmol
Description: FIG. 24. In vivo metabolite analysis of ^177Lu-CA028 in comparison with ^177Lu-PSMA-617 (10 MBq, 0.2 nmol in approximately 100 μl of 0.9% saline) in a BALB/c nude mouse (tumor) at 1 h p.i. […] This proves the integrity of the complex within the main distribution period.

C4-2 tumor xenograft = assay: Small-animal PET in C4-2 tumor bearing mice; type: in vivo, BALB/c nu/nu mouse
Description: as §1
For small-animal PET imaging with various ^64Cu-labeled PSMA ligands, 0.2 nmol, 10 MBq of approximately 100 μL in 0.9% saline the radiolabeled compound were injected into a C4-2 tumor bearing mouse. The dynamic PET was recorded in a small animal PET scanner (Siemens Inveon D-PET, Malvern, PA USA). The SUV values were obtained from conventional (non-dynamic) PET images. The formula for the SUV was:
The volumes-of-interest (VOIs) were obtained by manual delineation of the appropriate whole tissue (heart, kidneys, bladder, tumor—with an approximate volume of 100-500 μl)—or parts of the tissue liver and muscle. […]

[5] = In vivo fate and metabolization of 64Cu-chloride and 64Cu-CA003 (PET, radio-HPLC of tissue extracts); parameters: species or system Swiss mice; details: 10 min p.i., mouse without tumor
Description: The metabolization in vivo was studied by radio-HPLC analysis. Female Swiss mice (n=3) without tumor were injected via the tail vein with ^64Cu-chloride (10 MBq in approximately 100 μL of 0.9% saline) or ^64Cu-CA003 (9 MBq, 0.30 nmol in approximately 100 μL of 0.9% saline). PET imaging was performed 10 min post injection and subsequently blood, the liver and the kidneys were harvested. The tissues were rinsed with precooled saline, blotted dry and treated with 2 mL of 0.1 M NH4OAc/EtOH (35:65). The tissues were homogenized using an Ultra-Turrax T8 (IKA Labortechnik, Germany). The samples were centrifuged for 10 min at 13,000 rpm (4° C.). Subsequently, the pellet and supernatant were separated and the relative activity was measured. The results are expressed as percent. Additionally, an aliquot of supernatant was prepared for HPLC measurement by precipitation of the proteins with ACN as described above. The sample was analyzed by radio-HPLC (0-100% ACN in 5 min, Monolith column), with a flow rate of 2 mL/min. Fractions were collected every ten seconds over the whole course of the chromatography and the relative activity of the samples was measured in a gamma-counter to reconstruct a chromatogram.

T1 sequence (Q04609 whole entry): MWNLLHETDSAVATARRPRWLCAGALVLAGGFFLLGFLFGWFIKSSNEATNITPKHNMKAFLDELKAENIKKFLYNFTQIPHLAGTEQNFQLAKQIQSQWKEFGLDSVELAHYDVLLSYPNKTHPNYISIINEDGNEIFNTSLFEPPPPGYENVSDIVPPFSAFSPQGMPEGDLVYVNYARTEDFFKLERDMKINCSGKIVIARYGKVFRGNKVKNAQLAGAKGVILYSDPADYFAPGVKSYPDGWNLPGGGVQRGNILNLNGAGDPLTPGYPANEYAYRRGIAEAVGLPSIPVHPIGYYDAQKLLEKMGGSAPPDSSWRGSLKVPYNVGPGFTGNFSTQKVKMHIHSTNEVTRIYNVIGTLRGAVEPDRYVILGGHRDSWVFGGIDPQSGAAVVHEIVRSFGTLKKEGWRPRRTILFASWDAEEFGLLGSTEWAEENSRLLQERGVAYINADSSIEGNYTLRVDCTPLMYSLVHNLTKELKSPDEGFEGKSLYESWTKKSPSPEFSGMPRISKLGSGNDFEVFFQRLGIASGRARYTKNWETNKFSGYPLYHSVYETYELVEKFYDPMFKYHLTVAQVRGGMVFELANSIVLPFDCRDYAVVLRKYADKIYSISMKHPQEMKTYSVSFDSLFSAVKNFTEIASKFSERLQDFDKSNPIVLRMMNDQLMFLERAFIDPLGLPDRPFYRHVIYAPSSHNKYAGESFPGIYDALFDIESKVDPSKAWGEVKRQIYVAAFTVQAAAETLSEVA

O=C([O-])CN1CCN(CC(=O)[O-])CCN(CC(=O)NCC2CCC(C(=O)N[C@@H](Cc3ccc4ccccc4c3)C(=O)NCCCC[C@H](NC(=O)N[C@@H](CCC(=O)O)C(=O)O)C(=O)O)CC2)CCN(CC(=O)[O-])CC1.[68Ga+3] (some centres unmarked) [^68Ga-PSMA-617]
SUVmean Blood pool, mediastinal (PSMA [1]; 1 h): 2.5 | SUVmean Bone met (PSMA [1]; 1 h): 9.4 | SUVmean Colon (PSMA [1]; 1 h): 3.5 | SUVmean Gluteal muscle (PSMA [1]; 1 h): 0.7 | SUVmean Kidneys (PSMA [1]; 1 h): 15.6 | SUVmean Lacrimal gland (PSMA [1]; 1 h): 4.9 | SUVmean Liver (PSMA [1]; 1 h): 3.3 | SUVmean Lymph node (PSMA [1]; 1 h): 7.1 | SUVmean Nasal mucosa (PSMA [1]; 1 h): 2.9 | SUVmean Parotid gland (PSMA [1]; 1 h): 10.4 | SUVmean Prox. Small intestine (PSMA [1]; 1 h): 4.7 | SUVmean Spleen (PSMA [1]; 1 h): 4.3 | SUVmean Sublingual gland (PSMA [1]; 1 h): 4.6 | SUVmean Submandibular gland (PSMA [1]; 1 h): 10 | SUVmean Blood pool, mediastinal (PSMA [1]; 3 h): 2.4 | SUVmean Bone met (PSMA [1]; 3 h): 6.3 | SUVmean Colon (PSMA [1]; 3 h): 4.0 | SUVmean Gluteal muscle (PSMA [1]; 3 h): 0.7 | SUVmean Kidneys (PSMA [1]; 3 h): 17.0 | SUVmean Lacrimal gland (PSMA [1]; 3 h): 5.9 | SUVmean Liver (PSMA [1]; 3 h): 2.7 | SUVmean Lymph node (PSMA [1]; 3 h): 13.5 | SUVmean Nasal mucosa (PSMA [1]; 3 h): 3.4 | SUVmean Parotid gland (PSMA [1]; 3 h): 13.1 | SUVmean Prox. Small intestine (PSMA [1]; 3 h): 5.5 | SUVmean Spleen (PSMA [1]; 3 h): 3.5 | SUVmean Sublingual gland (PSMA [1]; 3 h): 4.0 | SUVmean Submandibular gland (PSMA [1]; 3 h): 12.4

O=C(O)CC[C@H](NC(=O)N[C@@H](CCCCNC(=O)[C@H](Cc1ccc2ccccc2c1)NC(=O)[C@H]1CC[C@H](CNC(=O)CN2CCN(CC(=O)O)CCN(CC(=O)O)CCN(CC(=O)O)CC2)CC1)C(=O)O)C(=O)O [PSMA-617]
free 177Lu [2]: no free activity

NC(=O)CN1CCN(CC(N)=O)CCN(CC(N)=O)C(Cc2ccc(NC(=S)NCC3CCC(C(=O)NC(Cc4ccc5ccccc5c4)C(=O)NCCCCC(NC(=O)NC(CCC(=O)O)C(=O)O)C(=O)O)CC3)cc2)CN(CC(N)=O)CC1 (centres unmarked) [CA009]
Ki / binding affinity to PSMA (in words) (PSMA [3]): highest affinity | tumor uptake / retention in planar scintigraphy (in words) (C4-2 tumor): high uptake of the tracer in the tumor tissue

O=C([O-])CN1CCN(CC(=O)[O-])CCN(CC(=O)NCC2CCC(C(=O)N[C@@H](Cc3ccc4ccccc4c3)C(=O)NCCCC[C@H](NC(=O)N[C@@H](CCC(=O)O)C(=O)O)C(=O)O)CC2)CCN(CC(=O)[O-])CC1.[177Lu+3] (some centres unmarked) [^177Lu-PSMA-617]
integrity of tracer in extracts from kidney, blood, liver and tumor (radio-HPLC) [4]: activity elutes at the retention time of the intact tracer

O=C(O)CCC(NC(=O)NC(CCCCNC(=O)C(Cc1ccc2ccccc2c1)NC(=O)C1CCC(CNC(=O)c2ccc(CN3CCCNCCNCCCNCC3)cc2)CC1)C(=O)O)C(=O)O (centres unmarked) [CA003]
Ki / binding affinity to PSMA (in words) (PSMA [3]): particularly high affinity

NC(=O)CN1CCN(CC(N)=O)CCN(CC(=O)NCC2CCC(C(=O)NC(Cc3ccc4ccccc4c3)C(=O)NCCCCC(NC(=O)NC(CCC(=O)O)C(=O)O)C(=O)O)CC2)CCN(CC(N)=O)CC1 (centres unmarked) [CA012]
Ki / binding affinity to PSMA (in words) (PSMA [3]): highest affinity | tumor uptake / retention in planar scintigraphy (in words) (C4-2 tumor): high uptake of the tracer in the tumor tissue

[64Cu+2].[Cl-].[Cl-] [^64Cu-chloride]
tumor-to-liver ratio (C4-2 tumor xenograft; 2 h): 0.38 | tracer accumulation in PET images (in words) (C4-2 tumor xenograft; C4-2 tumour bearing mice): very high liver accumulation | blood circulation, maximum intensity projection PET [5]: 1.3 | kidney uptake, maximum intensity projection PET [5]: 3.4 | liver uptake, maximum intensity projection PET [5]: 2.7

O=C(O)CCC(NC(=O)NC(CCCCNC(=O)C(Cc1ccc2ccccc2c1)NC(=O)C1CCC(CNC(=S)Nc2ccc(CC3CN(CC(=O)O)CCN(CC(=O)O)CCN(CC(=O)O)CCN3CC(=O)O)cc2)CC1)C(=O)O)C(=O)O (centres unmarked) [CA029]
free 177Lu [2]: no free activity
